According to EP0551200A1, “Protein phosphatase inhibitors for use in therapy” (priority 1992, dated 1993):
Where two headings read alike, the source gives them in different places.

Tests used:
human fibroblasts = experiment: Early protein phosphorylation changes in 32P-labeled cells, two-dimensional gel electrophoresis with computerized densitometry; assay type: cell-based
Procedure: The cells were then subjected to analysis by high resolution two-dimensional gel electrophoresis combined with computerized imaging as previously described (Guy et al, J. Biol. Chem. 266, 14343-14352, 1991).
Radiolabeling of Cells and Cell Lysis - For labeling with [³²P]orthophosphate cells were plated onto 90 mm plastic tissue culture dishes and incubated for 3 days for the cells to become confluent. Immediately before labeling, the media was removed and the cells were washed twice with 5 ml of phosphate- and serum-free media (150 mM NaCl, 5 mM MgCl₂, 5 mM KCl, 1.6 mM CaCl₂, 0.5% glucose, 10 mM Tris, 0.1% bovine serum albumin, pH 7.4) before the addition of 1 mCi/ml of [³²P]orthophosphate in 3 ml of the same media to each plate. The plates were incubated at 37°C in a humidified CO₂ incubator for 2 h before the addition of the okadaic acid or other agonists at the concentrations and for the times indicated in the figures and table. The agonists were reconstituted in aqueous buffered solution or in dimethyl sulfoxide. […] At the completion of labeling the media was removed, and the cells were rapidly washed twice with 5 ml of ice-cold phosphate-buffered saline before being solubilised in 200 µl of cytosol extraction buffer (10mM Tris-HCl, 50 mM EDTA, 50 mM NaCl, 30 mM sodium pyrophosphate, 50 mM NaF, 100µM Na₃VO₄, 0.65% Nonidet P-40, 2 mM leupeptin, 2mM phenylmethylsulfonyl fluoride, pH 7.4). The lysate was collected and centrifuged for 5 min at 14,000 rpm. The pellet containing the nuclear fraction (including the cytoskeletal-membrane fractions) was separated from the cytosolic fraction. Both fractions were lyophilized.
Two-dimensional Gel Electrophoresis - The lyophilized fractions (each of approximately 12 µg) were subjected to isoelectric focusing for 18,000 V/h with pH 3-10 ampholytes using the Millipore Investigator two-dimensional electrophoresis system (Millipore). Following this, the first-dimension gel was extruded and equilibrated in SDS buffer for 2 min before being loaded onto the second dimension 12.5% SDS-polyacrylamide gel. The gel was fixed, dried and ³²P-labeled polypeptides were located by autoradiography by using intensifying screens at -80°C. For measurement of the pH profile, carbamylated protein standards (Pharmacia LKB Biotechnology Inc.) were co-run on duplicate gels and related to proteins of known pI on previously calibrated samples. Molecular weight marker proteins from Sigma were detected by Coomassie Blue staining and marked on the autoradiogram. ³²P-Labeled 27 hsp complex prepared from human fibroblasts heat shocked at 43°C for 30 min was also used as a marker.
Quantitative Determination of Protein Phosphorylation - The amount of protein phosphorylation on autoradiographs derived from cytosolic membrane or antibody-precipitated preparations containing equal amounts of protein were analyzed by computerized densitometry using a Visage 2000 Image analysis system (BioImage Products, Ann Arbor, MI, US).
The ³²P-labeled protein spots are resolved and detected by autoradiography of the high definition two-dimensional gel electrophoresis of cytosolic extracts prepared from ³²P-labeled human fibroblasts. The radioactive spots (each representing one or more phosphoproteins) are analyzed by computerized densitometry. Each spot is arbitrarily assigned a number. […]

Egr-1 protein = assay type: cell-based; conditions: 2 h treatment, data not shown
Procedure: Quiescent human fibroblasts were stimulated with MEM containing 0.5 µM okadaic acid in the presence or absence of cycloheximide (10 µg/ml) for the times indicated in Fig. 11. […] Treatment of cells with cycloheximide enhanced the induction of Egr-1 mRNA by okadaic acid at 1.5 and 3 h (Fig. 11). Similarly puromycin, like cycloheximide, also "superinduces" the induction of the Egr-1 mRNA by okadaic acid (data not shown). […] However, in view that protein phosphatase 1 (PP1) and protein phosphatase 2A (PP2A) regulate enzymes associated with cellular protein synthesis (Cohen, Annu. Rev. Biochem. 58, 453-508, 1989) the effect of okadaic acid on protein synthesis in mouse and human fibroblasts was also measured. […] By then the Egr-1 mRNA message was already induced. A corollary to this is a comparison of the amount of ³⁵S-methionine labelled Egr-1 protein immunoprecipitated by R5232 antibodies from protein phosphatase inhibitor-treated and control cells. […] Thus, the induction of the Egr-1 gene by phosphatase inhibitors is unlikely to be mediated by their late inhibitory effects on cellular protein synthesis.

c-fos and c-jun = experiment: Northern blot analysis of c-fos and c-jun in Balb/c 3T3 cells; assay type: cell-based, mouse; conditions: 15 nM time course
Procedure: 10 µg of RNA was applied to each lane and subjected to Northern blot analysis using an Egr-1 specific cDNA probe [1.6 kb Bgl II fragment (Sukhatme et al, Cell 53, 37-48, 1988)]. The same blots were rehybridized with actin or GADPH cDNA for normalizing the amount of RNA loaded. The blots were dried and autoradiographed. • (A). Time course of okadaic acid-induced Egr-1 and c-jun messages in primary human fibroblasts. Quiescent human fibroblasts were induced with 1 µM of okadaic acid for the time periods indicated. […] Time course of okadaic acid-induced Egr-1 message in Balb/c 3T3 cells. Quiescent Balb/c 3T3 cells were induced with okadaic acid (0.5µM) for the times indicated. • (C). Concentration dependent induction of Egr-1 message by okadaic acid in Balb/c 3T3 cells. Quiescent Balb/c 3T3 cells were induced with the indicated concentrations of okadaic acid for 1 h. As controls, different concentrations of DMSO were included. These corresponded to the amounts present in 0.25 µM okadaic acid (0.025% dimethyl sulphoxide (DMSO)) 0.5 µM okadaic acid (0.05% DMSO) and 1 µM okadaic acid (0.1%). • (D). […]
Cell Cultures and Reagents. […] The blots were autoradiographed and quantitated with the aid of the Visage 2000 Image System (BioImage Products, Ann Arbor, MI, US). […]

Egr-1 mRNA [1] = experiment: cells; assay type: cell-based, mouse
Procedure: (§1) 10 µg of RNA was applied to each lane and subjected to Northern blot analysis using an Egr-1 specific cDNA probe [1.6 kb Bgl II fragment (Sukhatme et al, Cell 53, 37-48, 1988)]. The same blots were rehybridized with actin or GADPH cDNA for normalizing the amount of RNA loaded. The blots were dried and autoradiographed. • (A). Time course of okadaic acid-induced Egr-1 and c-jun messages in primary human fibroblasts. Quiescent human fibroblasts were induced with 1 µM of okadaic acid for the time periods indicated. […] Time course of okadaic acid-induced Egr-1 message in Balb/c 3T3 cells. Quiescent Balb/c 3T3 cells were induced with okadaic acid (0.5µM) for the times indicated. • (C). Concentration dependent induction of Egr-1 message by okadaic acid in Balb/c 3T3 cells. Quiescent Balb/c 3T3 cells were induced with the indicated concentrations of okadaic acid for 1 h. As controls, different concentrations of DMSO were included. These corresponded to the amounts present in 0.25 µM okadaic acid (0.025% dimethyl sulphoxide (DMSO)) 0.5 µM okadaic acid (0.05% DMSO) and 1 µM okadaic acid (0.1%). • (D). Concentration dependent and time course induction of Egr-1 message by calyculin A. Quiescent Balb/c 3T3 cells were induced with different concentrations of calyculin A for 1 h. Northern analysis of this dose-dependent induction by calyculin A is shown on the left panel of the figure. […] Northern analysis of this time course induction by calyculin A is shown in the right panel of the figure. The same blot was rehybridized with pCMV-fos (Curran et al, Oncogene 2, 79-84, 1987) and pCMV-jun (Rauscher et al, 1988) shown in the middle panel. The blot was dried and autoradiographed.
(§2) Quiescent primary human fibroblasts were incubated with okadaic acid (OA) or TPA for 1 or 3 h. The concentrations of OA and TPA were 0.5 µM and 120 ng/ml, respectively. The concentration of 1-(5-isoquinolinylsulfonyl)-2-methylpiperazine dihydrochloride (H7) and N-(2-guanidinoethyl)-5-isoquinolinesulphonamide dihydrochloride (HA1004) used was 25 µM. The cells were pre-treated for 15 min with H7 or HA1004 before they were induced by OA or TPA for 1 or 3 h. Cells were harvested, RNA was isolated and subjected to Northern blot analysis. The blot was probed with Egr-1 or GADPH cDNA. • (B). As a positive control, primary human fibroblasts were treated with TPA (30 ng/ml) for 1 h (1st lane). The fibroblasts were also pre-treated with H7 (25 µM) or HA1004 (25 µM) for 15 min before treatment with TPA for 1 h (2nd and 3rd lanes respectively). […] The blot was probed with Egr-1 or actin cDNA. • (C). Quiescent Balb/c 3T3 cells were incubated with OA, TPA or dBt-cAMP for 1 h or pre-treated with H7 (25 µM) or HA1004 (25 µM) for 15 min and then incubated with each of the agonists for 1 h. Cells were harvested, RNA was isolated and subjected to Northern blot analysis. The concentration of each agonist used was as follows: lane a: 0.5 µM of OA, lane b: 100 ng/ml of TPA, lane c: 1 mM of dBt-cAMP, lane d: H7 plus OA (0.5 µM), lane e: H7 plus TPA (100 ng/ml), lane f: H7 plus dBt-cAMP (1 mM), lane g: HA1004 plus OA (0.5 µM), lane h: HA1004 plus TPA (100 ng.ml), lane i: HA1004 plus dBt-cAMP (1mM). The blot was probed with Egr-1 or GADPH cDNA.
Cell Cultures and Reagents. Human diploid foreskin fibroblasts were a gift from Dr J Vilcek (New York University, New York). The cells were grown in MEM supplemented with 10% fetal bovine serum (Hyclone, Logan, UT, US), Mouse Balb/c 3T3 cells were purchased from the American Type Culture Collection and grown in Dulbecco's MEM (DMEM) supplemented with 10% fetal bovine serum. Okadaic acid, calyculin A, H7, and HA1004 were purchased from Biomol Research Laboratories (Plymouth Meeting, PA, US). TPA, puromycin and dBt-cAMP were purchased from Sigma (St Louis, MO, US) 1 mM stock solutions of okadaic acid or calyculin A were solubilized in DMSO. [³²P]orthophosphate and other radioactive chemicals were purchased from Du Pont-New England Nuclear (Boston, MA). […]

Egr-1 mRNA [2] = experiment: Northern blot analysis of Egr-1 mRNA induction in quiescent primary human fibroblasts; assay type: cell-based
Procedure: Quiescent human fibroblasts were incubated with TNF (500 units/ml) (a) or OA (500 nM) (b) for 0, 30, 60 min after which total cellular RNA was extracted. Blots of RNA from these cells were hybridized to radiolabeled (10⁶ cpm/ml) Egr-1 cDNA probe. c, the blot in b was stripped and reprobed with c-jun cDNA. Note: Egr-1 mRNA probe was not completely stripped from the blot. The autoradiograph of the blot is presented. d, regularly maintained cells were incubated wither with no additions (control, 0 time) or with OA for 1, 3, 5, 7 h and Northern analysis was carried out with an IL-6 cDNA probe (ATCC, Rockville, MD, US).
as §1
Cells were incubated with either 0.5 µM of okadaic acid or 10 µg/ml of cycloheximide as well as with 0.5 µM of okadaic acid and 10 µg/ml of cycloheximide for 1.5, 3 or 6 h. Cells were harvested, RNA isolated and subjected to Northern blot analysis. The blot was probed with Egr-1 or actin cDNA.
as §2, with “The concentration of each agonist used was as follows: lane a: 0.5 µM of OA, lane b: 100 ng/ml of TPA, lane c: 1 mM of dBt-cAMP, lane d: H7 plus OA (0.5 µM), lane e: H7 plus TPA (100 ng/ml), lane f: H7 plus dBt-cAMP (1 mM), lane g: HA1004 plus OA (0.5 µM), lane h: HA1004 plus TPA (100 ng.ml), lane i: HA1004 plus dBt-cAMP (1mM). The blot was probed with Egr-1 or GADPH cDNA.” left out

With O-tetradecanoylphorbol 13-acetate [TPA] the “pattern of early protein phosphorylation changes (in words)” value (human fibroblasts) was “quite different from that produced by okadaic acid or TNF”.

`COC[C@@H]([C@H](O)[C@H](O)C(=O)NCC[C@H](C)c1nc(/C=C/C[C@@H]2O[C@]3(C[C@@H](O)[C@@H]2C)O[C@H]([C@H](C[C@H](O)[C@H](C)[C@H](O)[C@H](C)/C=C(C)/C(C)=C/C=C/C(C)=C\C#N)OC)[C@H](OP(=O)(O)O)C3(C)C)co1)N(C)C` [calyculin A] was tested, and the “amount of 35S-methionine labeled Egr-1 protein relative to control cells” value (Egr-1 protein) was 4 to 5 fold, the “induction of immediate-early genes c-fos and c-jun (in words)” value (c-fos and c-jun) was “also induced” and the “concentration up to which induction of Egr-1 mRNA increased dose-dependently” value (Egr-1 mRNA [1]; 1 h) was “up to 25 nM”. The “concentration inducing an equivalent fold increase in Egr-1 mRNA” value (Egr-1 mRNA [1]; 1 h, calyculin A compared with okadaic acid) was 10 nM.

With `COc1ccc(C[C@H](N)C(=O)N[C@H]2[C@@H](O)[C@H](n3cnc4c(N(C)C)ncnc43)O[C@@H]2CO)cc1` [puromycin] the “effect on the induction of Egr-1 mRNA by okadaic acid (in words)” value (Egr-1 mRNA [2]; 0.5 µM okadaic acid, protein synthesis inhibitor) was “superinduces”.

For `C[C@@H]1C[C@@H]([C@H](O)CC2CC(=O)NC(=O)C2)C(=O)[C@@H](C)C1` [cycloheximide], the “effect on the induction of Egr-1 mRNA by okadaic acid (in words)” value (Egr-1 mRNA [2]) was “enhanced” and the “induction of Egr-1 mRNA by the substance alone (in words)” value (Egr-1 mRNA [2]) was “induced Egr-1 mRNA”.

With `CC1CNCCN1S(=O)(=O)c1cccc2cnccc12.Cl.Cl` (stereo not shown) [H7, 1-(5-isoquinolinylsulfonyl)-2-methylpiperazine dihydrochloride] the “block of induction of Egr-1 message by okadaic acid or TPA (in words)” value (Egr-1 mRNA [1]; 25 µM, 15 min pre-treatment) was “effectively blocked” and the “block of induction of Egr-1 message by okadaic acid or TPA (in words)” value (Egr-1 mRNA [2]; 25 µM, 15 min pre-treatment) was “effectively blocked”.
